Experimental data taken from article PMC5838563, “Compounds producing an effective combinatorial regimen for disruption of HIV‐1 latency” (EMBO Molecular Medicine, 2017).

Experiments:
PKCδ/θ and IκBα/IκBε = system: PKCδ/θ and IκBα/IκBε; set-up: method as in Jiang et al, 2015; conditions: 12 nM PEP005; ref Jiang et al, 2015; cited from earlier work
[1] = system: HIV‐1 LTR (Jurkat^Tat LTR‐luciferase cell line); experiment: Jurkat^Tat LTR‐luciferase reporter assay for HIV‐1 latency reversal; format: cell-based; conditions: Human immunodeficiency virus 1; 24 h treatment, percent activation relative to PMA
Protocol: Activity of compounds identified for latency‐reversing activity in the primary screens was further validated by examining the effect of a single concentration (7 μM) on an alternative reporter cell line, bearing an integrated HIV‐1 reporter virus where luciferase expression is produced from the 5′ LTR, in cells constitutively expressing the viral TAT protein (Fig 2A), referred to as Jurkat^Tat LTR‐luciferase. Importantly, this cell line has the HIV‐1 reporter virus integrated at a different chromosomal location than that of the A1 J‐Lat cell line and also enables validation of provirus reactivation with a second enzymatic luciferase assay. In these assays, after 24‐h treatment we observed 10 compounds that produced significant induction of luciferase activity, including two compounds from the KD2 library, three from the CCBN library and five compounds from the DIVERSet. Compounds that produced significant effects in these secondary assays were re‐ordered from their respective suppliers and examined in more detail using the HIV‐luciferase reporter cell line. […] These five compounds represent diverse chemical structures (Fig 2G).
Figure 2 Concentration–response analysis for five selected PH compounds • A Schematic representation of the pTY‐LAI‐luciferase reporter virus used in secondary screening assays, where luciferase expression is under the control of the 5′ LTR, in cloned lines derived from Jurkat^TAT cells bearing single‐copy integrants. • B–F Luciferase activity was measured from reporter cells treated for 24 h with the indicated compound concentrations. Results are presented as percent activation relative to PMA‐treated controls. The EC50 for each compound is indicated. Mean and standard error (SE) for the results are determined from three biological replicates (n = 3) and technical duplicates. • G Illustration of chemical structures of the PH compounds.
Luciferase assays were performed in 96‐well plate format, where 100 μl of cell culture containing 1 × 10^5 luciferase reporter cells was plated per well. After the indicated time of treatment, 100 μl of luciferase assay reagent (SuperlightTM luciferase reporter Gene Assay Kit; BioAssay Systems) was added per well, and incubated for 2 min at RT, when luciferase activity was measured on a VictorTM X3 Multilabel Plate Reader. Results were presented relative to the positive control samples treated with 50 nM PMA. T‐cell activation was measured using 1 × 10^5 wild‐type Jurkat^Tat cells or PBMCs purified from healthy donors, treated as indicated. After 24 h, cells were incubated with 2.4G2 antibody to block nonspecific binding and further stained with 5 μl of anti‐human CD69 or an IgG1 isotype control antibody conjugated with PE‐Cy^Tm7. After 30‐min incubation on ice, the cells were washed twice with PBS and analyzed using a Becton Dickinson LSRII flow cytometer (BD Biosciences) to determine mean fluorescence intensity (MFI), using FlowJo software. The mean fluorescence intensity (MFI) obtained from cells stained with IgG isotype antibody control was subtracted from that from cells stained with CD69 to compensate for background (MFICD69‐MFIIgG). IL‐2 production was measured in cell culture supernatants using a human IL‐2 ELISA System (eBioscience). Jurkat^Tat clones bearing integrations of the mini‐dual HIV reporter virus, clone #11 and #131, were plated at 1 × 10^5 per well in a 96‐well plate format, treated for the indicated time, washed with 1 ml PBS, and then transferred into flow cytometry tubes, where they were fixed with freshly made 1% formaldehyde for 10 min at RT prior to analysis by flow cytometry. Results are presented as ΔMFI, where MFI obtained from parental Jurkat^Tat cells undergoing the same treated was subtracted from the MFI corresponding to each cell line; ΔMFI = (MFI compound‐treated cell line 131/11 − MFI compound‐treated WT Jurkat^Tat cells).

[2] = system: latent HIV‐1 provirus in resting CD4^+ T cells from HIV‐1‐infected patients; experiment: Supernatant HIV‐1 RNA from resting CD4+ T cells of patients (RT–qPCR); format: cell-based; conditions: 30 μM, 24 h
Protocol: For this analysis, we purified resting CD4^+ (rCD4^+) T lymphocytes from pools of patient samples by two‐step negative selection (Appendix Table S3). […] Purified rCD4^+ T cells were treated with 30 μM of each PH compound for 24 h, and RNA from the culture supernatants was analyzed by one‐step RT–qPCR, where results are presented as copy numbers of the virion/ml. […] Based on its capability for reactivating latent provirus at multiple chromosomal locations in cell lines, its negligible toxic effect, and that it produces the most robust reactivation of virus from patient samples, we focused our subsequent analysis on this compound (Table 1).
Figure 8 Effect of PH compounds on expression of HIV provirus in latently infected cells from patients Resting CD4^+ T cells purified from patient samples (n = 18, Appendix Table S3) were treated with 30 μM of each PH compound for 24 h, and HIV‐1 RNA was measured in culture supernatants. Results are presented as HIV virions/ml (mean ± SE). LOD indicates the limit of detection, 100 copies/ml culture supernatant. TEXT PRINTED IN THE PICTURE: PMA: Supernatant HIV-1 mRNA (Copies/ml): 308929.80 (50 nM) | PH01: Supernatant HIV-1 mRNA (Copies/ml): 5348.04 (Single Concentration (30μM)) | PH02: Supernatant HIV-1 mRNA (Copies/ml): 17624.53 (Single Concentration (30μM)) | PH03: Supernatant HIV-1 mRNA (Copies/ml): 4714.11 (Single Concentration (30μM)) | PH04: Supernatant HIV-1 mRNA (Copies/ml): 7134.68 (Single Concentration (30μM)) | PH05: Supernatant HIV-1 mRNA (Copies/ml): 587.19 (Single Concentration (30μM))
HIV‐1 RNA was measured from 1 × 10^6 resting CD4^+ T lymphocytes treated with 30 μM of each compound. Extracellular RNA was isolated using the ZR Viral RNA Kit (Zymo Research) and total cellular mRNA using the RNeasy MinElute cleanup kit (Qiagen). HIV‐1 RNA concentrations were assayed in one‐step RT–qPCRs using the iTaq™ universal SYBR Green one‐step kit (BIO‐RAD) with the HIV‐1 LTR‐specific primers, AGCCGCCTAGCATTTCATC and […]. RNA copy number was calculated using a standard curve generated from titrated infections with RGH‐PGK virus (Dahabieh et al, 2013). Reproducibility of RT–qPCR analysis was confirmed using a second set of primers within HIV‐1 p24 Gag, AGCAGCCATGCAAATGTTA, […]. HIV‐1 RNA determinations were normalized to GAPDH RNA measured using the primers […] and […].

Structure (SMILES) | time post‐treatment at which phosphorylation is induced (PKCδ/θ and IκBα/IκBε) [h] | EC50 [1] [nM] | viral latency‐reversing activity compared to PMA [2] | Supernatant HIV-1 mRNA ([2]; LOD 100 copies/ml) [Copies/ml]
C/C=C(/C)C(=O)O[C@H]1C(C)=C[C@]23C(=O)[C@@H](C=C(CO)[C@@H](O)[C@]12O)[C@H]1[C@@H](C[C@H]3C)C1(C)C [PEP005, ingenol‐3‐angelate, reference compound] | 0.5 to 2 | – | – | –
CC(=O)Oc1ccccc1N(C=C1Sc2ccccc2C1=O)C(C)=O [PH02, 2‐{acetyl[(3‐oxo‐1‐benzothien‐2(3H)‐ylidene)methyl]amino}phenyl acetate] | – | 787 | consistently produced the strongest effect | 17624.53
